Experimental data reported in patent publication US7842856B2, “Herbicide resistance gene, compositions and methods” (The Board of Trustees of the University of Illinois, priority 2005, dated 2010).

What was measured:
[1] = test system: A. tuberculatus R (PPO inhibitor-resistant) parent; assay: Herbicide dose-response on whole plants, R parent; type: in vivo, Amaranthus tuberculatus (waterhemp); settings: for GR50 (growth reduction by 50%) R: R line
[2] = test system: A. tuberculatus F2 and backcross lines; assay: Inheritance of resistance: R or S response of F2 and backcross lines to lactofen; type: in vivo, Amaranthus tuberculatus
[3] = male F1(R) x female F1(R), lactofen 110 g ai ha^−1 plus 1% COC, 15 days after treatment, N 400
[4] = male F1(R) x female R, lactofen 110 g ai ha^−1, 15 days, N 200
[5] = male F1(R) x female S, lactofen 110 g ai ha^−1, 15 days, N 200
[6] = male F1(S) x female F1(S), lactofen 110 g ai ha^−1, 15 days, N 400
[7] = male F1(S) x female R, lactofen 110 g ai ha^−1, 15 days, N 200
[8] = male F1(S) x female S, lactofen 110 g ai ha^−1, 15 days, N 200

SMILES | GR50 (growth reduction by 50%) R ([1]; 10 DAT) [g ai ha^−1] | GR50 (growth reduction by 50%) R ([1]; 15 DAT, dry weight vs control, plus 1% COC) [g ai ha^−1] | fold higher doses survived compared with S plants ([1]; lines homozygous for resistance vs S plants (FIG. 2; Table 2)) [fold] | Observed numbers R [2, 3] | Observed numbers S [2, 3] | Observed numbers R [2, 4] | Observed numbers S [2, 4] | Observed numbers R [2, 5] | Observed numbers S [2, 5] | Observed numbers R [2, 6] | Observed numbers S [2, 6] | Observed numbers R [2, 7] | Observed numbers S [2, 7] | Observed numbers R [2, 8] | Observed numbers S [2, 8]
CCOC(=O)C(C)OC(=O)c1cc(Oc2ccc(C(F)(F)F)cc2Cl)ccc1[N+](=O)[O-] (racemic) [Lactofen, (±)-2-ethoxy-1-methyl-2-oxoethyl 5-{2-chloro-4-(trifluoromethyl)phenoxy}-2-nitrobenzoate] | 2.9 | 21 | 53 | 297 | 103 | 200 | 0 | 98 | 102 | 304 | 96 | 200 | 0 | 109 | 91
O=C(O)c1cc(Oc2ccc(C(F)(F)F)cc2Cl)ccc1[N+](=O)[O-] [Acifluorfen, 5-{2-chloro-4-(trifluoromethyl)phenoxy}-2-nitrobezoic acid] | 5.8 | – | – | – | – | – | – | – | – | – | – | – | – | – | –
